Test results published in patent US20230151049A1, “Compounds Useful in HIV Therapy” (priority 2020, published 2023).
Like-named read-outs stand apart in the source and are kept apart here.

Assay: in vivo
Conditions: for Mean concentration of Example 4B: single IM 20 mg/kg equivalent of EFdA
Text: General Protocol for Prodrugs Rat PK Studies Conducted at ChemPartner, China
A total of three naïve male Wistar Han rats, 200-250 g, were received from Beijing VR Laboratory Animal Co. LTD. Following an acclimation period, the animals were assigned to the study based on acceptable health as determined by a staff veterinarian and catheter patency. Fasting of the animals before or after dosing was not required.
On Day 1, each animal received a single intramuscular injection of prepared test article at a target dose level of 20 mg/kg equivalent of EFdA and at a dose volume of 2 mL/kg. The injection sites were at gastrocnemius and identified with an indelible marker for daily monitoring during the study. The animals were manually restrained for dosing and were not sedated. The dose suspension was mixed well by inversion before each dose to ensure homogeneity. […] In addition, all animals are monitored twice daily by the veterinary staff for clinical abnormalities.
Blood samples were collected from the study animals as detailed in the sample collection Table 6 below
Each blood sample for PK (200 μL) was collected from tail vein. The blood was transferred to a tube containing NaF/Na2EDTA anticoagulant and inverted several times to mix. Draw 150 μL whole blood from the tube, add 150 uL 100 mM ammonium acetate, pH 4 buffer and mix well. The resulting blood samples were transferred to individual polypropylene tubes and immediately placed on dry ice until storage at nominally −80° C. prior to LC-MS/MS analysis.

[1] = day 28, single IM Example 2B 20 mg/kg
[2] = day 35, single IM Example 2B 20 mg/kg
[3] = day 14, single IM Example 9B 20 mg/kg equivalent of EFdA
[4] = day 21, single IM Example 9B 20 mg/kg equivalent of EFdA
[5] = day 28, single IM Example 9B 20 mg/kg equivalent of EFdA

C#C[C@]1(COP(=O)(N[C@@H](Cc2ccccc2)C(=O)OCCCCCCCCCCCCCCCC)Oc2ccccc2)O[C@@H](n2cnc3c(N)nc(F)nc32)C[C@@H]1O (single isomer, unassigned) [Example 2B]
Mean concentration of EFdA (day 1, single IM Example 2B 20 mg/kg): BQL (BQL = below quantification limit, 0.2-0.3 ng/mL for both) | Mean concentration of EFdA (day 7, single IM Example 2B 20 mg/kg): BQL (BQL = below quantification limit, 0.2-0.3 ng/mL for both) | Mean concentration of EFdA (day 14, single IM Example 2B 20 mg/kg): BQL (BQL = below quantification limit, 0.2-0.3 ng/mL for both) | Mean concentration of EFdA (day 21, single IM Example 2B 20 mg/kg): BQL (BQL = below quantification limit, 0.2-0.3 ng/mL for both) | Mean concentration of EFdA [1]: BQL (BQL = below quantification limit, 0.2-0.3 ng/mL for both) | Mean concentration of Example 2B [1]: BQL (BQL = below quantification limit, 0.2-0.3 ng/mL for both) | Mean concentration of EFdA [2]: BQL (BQL = below quantification limit, 0.2-0.3 ng/mL for both) | Mean concentration of Example 2B [2]: BQL (BQL = below quantification limit, 0.2-0.3 ng/mL for both) | concentration at 1 day (male, Wistar Han, rat, in vivo, day 1, single IM Example 2B 20 mg/kg, read-out: Mean concentration of Example 2B): 0.514 ng/mL | concentration at 7 day (male, Wistar Han, rat, in vivo, day 7, single IM Example 2B 20 mg/kg, read-out: Mean concentration of Example 2B): 0.708 ng/mL | concentration at 14 day (male, Wistar Han, rat, in vivo, day 14, single IM Example 2B 20 mg/kg, read-out: Mean concentration of Example 2B): 1.11 ng/mL | concentration at 21 day (male, Wistar Han, rat, in vivo, day 21, single IM Example 2B 20 mg/kg, read-out: Mean concentration of Example 2B): 1.33 ng/mL

C#C[C@]1(COP(=O)(N[C@@H](Cc2ccccc2)C(=O)OCCCCCCCCCC)Oc2ccccc2)O[C@@H](n2cnc3c(N)nc(F)nc32)C[C@@H]1O (single isomer, unassigned) [Example 4B]
Mean concentration of Example 4B (day 0.0208): BQL (BQL = below quantification limit, 0.5 ng/mL for Example 4B and 0.5 to 1 ng/mL for EFdA) | Mean concentration of Example 4B (day 0.0417): BQL (BQL = below quantification limit, 0.5 ng/mL for Example 4B and 0.5 to 1 ng/mL for EFdA) | Mean concentration of Example 4B (day 0.125): BQL (BQL = below quantification limit, 0.5 ng/mL for Example 4B and 0.5 to 1 ng/mL for EFdA) | Mean concentration of Example 4B (day 0.208): BQL (BQL = below quantification limit, 0.5 ng/mL for Example 4B and 0.5 to 1 ng/mL for EFdA) | Mean concentration of Example 4B (day 0.292): BQL (BQL = below quantification limit, 0.5 ng/mL for Example 4B and 0.5 to 1 ng/mL for EFdA) | Mean concentration of Example 4B (day 1): BQL (BQL = below quantification limit, 0.5 ng/mL for Example 4B and 0.5 to 1 ng/mL for EFdA) | Mean concentration of Example 4B (day 2): BQL (BQL = below quantification limit, 0.5 ng/mL for Example 4B and 0.5 to 1 ng/mL for EFdA) | Mean concentration of Example 4B (day 3): BQL (BQL = below quantification limit, 0.5 ng/mL for Example 4B and 0.5 to 1 ng/mL for EFdA) | Mean concentration of Example 4B (day 4): BQL (BQL = below quantification limit, 0.5 ng/mL for Example 4B and 0.5 to 1 ng/mL for EFdA) | Mean concentration of Example 4B (day 5): BQL (BQL = below quantification limit, 0.5 ng/mL for Example 4B and 0.5 to 1 ng/mL for EFdA) | Mean concentration of Example 4B (day 7): BQL (BQL = below quantification limit, 0.5 ng/mL for Example 4B and 0.5 to 1 ng/mL for EFdA) | Mean concentration of EFdA (day 14, single IM Example 4B 20 mg/kg equivalent of EFdA): BQL (BQL = below quantification limit, 0.5 ng/mL for Example 4B and 0.5 to 1 ng/mL for EFdA) | Mean concentration of EFdA (day 17, single IM Example 4B 20 mg/kg equivalent of EFdA): BQL (BQL = below quantification limit, 0.5 ng/mL for Example 4B and 0.5 to 1 ng/mL for EFdA) | Mean concentration of EFdA (day 21, single IM Example 4B 20 mg/kg equivalent of EFdA): BQL (BQL = below quantification limit, 0.5 ng/mL for Example 4B and 0.5 to 1 ng/mL for EFdA) | Mean concentration of EFdA (day 24, single IM Example 4B 20 mg/kg equivalent of EFdA): BQL (BQL = below quantification limit, 0.5 ng/mL for Example 4B and 0.5 to 1 ng/mL for EFdA) | Mean concentration of EFdA (day 28, single IM Example 4B 20 mg/kg equivalent of EFdA): BQL (BQL = below quantification limit, 0.5 ng/mL for Example 4B and 0.5 to 1 ng/mL for EFdA) | Mean concentration of EFdA (day 31, single IM Example 4B 20 mg/kg equivalent of EFdA): BQL (BQL = below quantification limit, 0.5 ng/mL for Example 4B and 0.5 to 1 ng/mL for EFdA)

C#C[C@]1(COP(=O)(N[C@@H](Cc2ccccc2)C(=O)OCCCCCCCCCC)OCC(=O)OCCCCCCCCCC)O[C@@H](n2cnc3c(N)nc(F)nc32)C[C@@H]1O (single isomer, unassigned) [Example 9B]
Mean concentration of EFdA [3]: BQL (BQL = below quantification limit, 0.2-0.3 ng/mL for Example 9B and 0.2 ng/mL for EFdA) | Mean concentration of Example 9B [3]: BQL (BQL = below quantification limit, 0.2-0.3 ng/mL for Example 9B and 0.2 ng/mL for EFdA) | Mean concentration of EFdA [4]: BQL (BQL = below quantification limit, 0.2-0.3 ng/mL for Example 9B and 0.2 ng/mL for EFdA) | Mean concentration of Example 9B [4]: BQL (BQL = below quantification limit, 0.2-0.3 ng/mL for Example 9B and 0.2 ng/mL for EFdA) | Mean concentration of EFdA [5]: BQL (BQL = below quantification limit, 0.2-0.3 ng/mL for Example 9B and 0.2 ng/mL for EFdA) | Mean concentration of Example 9B [5]: BQL (BQL = below quantification limit, 0.2-0.3 ng/mL for Example 9B and 0.2 ng/mL for EFdA) | concentration at 1 day (male, Wistar Han, rat, whole blood, intramuscular, day 1, single IM Example 9B 20 mg/kg equivalent of EFdA, read-out: Mean concentration of Example 9B): 3.01 ng/mL | concentration at 7 day (male, Wistar Han, rat, whole blood, intramuscular, day 7, single IM Example 9B 20 mg/kg equivalent of EFdA, read-out: Mean concentration of Example 9B): 0.663 ng/mL
